Laboratory results as given in patent US11932658B2 (BRISTOL-MYERS SQUIBB COMPANY, priority 2016, dated 2024).

Target: T1, PAR4 (Homo sapiens, UniProt Q96RI0)
T1 construct: expressed in transfected cells; host or cells: HEK293 PAR4 Clone 1.2A (BMS Arctic ID 383940)
T1 sequence (Q96RI0 18-385): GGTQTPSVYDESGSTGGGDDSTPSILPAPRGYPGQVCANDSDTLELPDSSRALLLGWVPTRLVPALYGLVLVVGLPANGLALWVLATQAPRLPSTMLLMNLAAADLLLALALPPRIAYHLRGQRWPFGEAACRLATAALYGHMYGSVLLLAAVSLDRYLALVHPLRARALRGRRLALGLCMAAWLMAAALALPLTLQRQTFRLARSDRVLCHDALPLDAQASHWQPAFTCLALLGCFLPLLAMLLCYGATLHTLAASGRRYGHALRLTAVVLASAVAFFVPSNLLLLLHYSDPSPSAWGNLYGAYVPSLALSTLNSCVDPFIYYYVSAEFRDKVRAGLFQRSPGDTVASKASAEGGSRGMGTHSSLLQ
Assay: PAR4 FLIPR assay (antagonism of agonist peptide-induced calcium mobilization)
Assay type: cell-based
In short: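 Antagonism was taken as block of calcium mobilization evoked by the agonist peptide H-Ala-Phe(4-F)-Pro-Gly-Trp-Leu-Val-Lys-Asn-[…]-NH2, added after 30 min room-temperature compound preincubation in dye-loaded PAR4-transfected HEK293 cells (endogenous PAR1). Fluorescence was read on FDSS, with compound addition alone used as the agonist counter-screen; values come from 11-point concentration-response curves.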

| SMILES | IC50 [nM] |
| --- | --- |
| COc1cnc2c(-c3nc4ccc5c(c4s3)C[C@](C)(COC(=O)Nc3cccnc3)O5)cc(C)cc2n1 [Example 195, (R)-(2-(2-methoxy-7-methylquinoxalin-5-yl)-7-methyl-7,8-dihydrobenzofuro[5,4-d]thiazol-7-yl)methyl pyridin-3-ylcarbamate] | 3.5 |
| COc1cnc2c(-c3nc4c(C)cc5c(c4s3)OC[C@H](COC(=O)Nc3ccc4scnc4c3)O5)cc(C)cc2n1 [Example 49, (R)-(2-(2-methoxy-7-methylquinoxalin-5-yl)-4-methyl-7,8-dihydro-[1,4]dioxino[2′,3′:3,4]benzo[1,2-d]thiazol-7-yl)methyl benzo[d]thiazol-5-ylcarbamate] | 49 |
| COc1cnc2c(-c3nc4ccc5c(c4s3)C[C@@H](CNC(=O)OCC3CCCCO3)O5)cc(C)cc2n1 (stereo partly drawn) [Example 235, (Tetrahydro-2H-pyran-2-yl)methyl (((S)-2-(2-methoxy-7-methylquinoxalin-5-yl)-7,8-dihydrobenzofuro[5,4-d]thiazol-7-yl)methyl)carbamate] | 4.1 |
| COc1cnc2c(-c3nc4cc(F)c5c(c4s3)C[C@H](COC(=O)Nc3cncnc3)O5)cc(C)cc2n1 [Example 185] | 6.9 |
| COc1cnc2c(-c3nc4c(C(O)C(C)(C)C)cc5c(c4s3)OCO5)cc(C)cc2n1 (stereo not drawn) [Example 263, 1-(7-(2-methoxy-7-methylquinoxalin-5-yl)-[1,3]dioxolo[4′,5′:3,4]benzo[1,2-d]thiazol-5-yl)-2,2-dimethylpropan-1-ol] | 5.7 |
| COc1cnc2c(-c3nc4ccc5c(c4s3)C[C@@H](CNC(=O)OC3CCOCC3)O5)cc(C)cc2n1 [Example 227, (S)-tetrahydro-2H-pyran-4-yl ((2-(2-methoxy-7-methylquinoxalin-5-yl)-7,8-dihydrobenzofuro[5,4-d]thiazol-7-yl)methy 1)carbamate] | 1.3 |
| COc1ccc(OC(=O)NC[C@@H]2Cc3c(c(F)cc4nc(-c5cc(C)cc6nc(OC)cnc56)sc34)O2)cc1 [Example 216, (S)-4-methoxyphenyl ((5-fluoro-2-(2-methoxy-7-methylquinoxalin-5-yl)-7,8-dihydrobenzofuro[5,4-d]thiazol-7-yl)methyl)carbamate] | 2.1 |
| COc1cnc2c(-c3nc4cc(F)c5c(c4s3)C[C@H](COC(=O)Nc3cnc(C)nc3)O5)cc(F)cc2c1 [Example 280, (R)-(5-fluoro-2-(6-fluoro-3-methoxyquinolin-8-yl)-7,8-dihydrobenzofuro[5,4-d]thiazol-7-yl)methyl (2-methylpyrimidin-5-yl)carbamate] | 2.4 |
| COc1cnc2c(-c3nc4c(C)cc5c(c4s3)OC[C@H](COC(=O)Nc3ccnc(C)c3)O5)cc(C(F)F)cc2n1 [Example 84, (R)-(2-(7-(difluoromethyl)-2-methoxyquinoxalin-5-yl)-4-methyl-7,8-dihydro-[1,4]dioxino[2′,3′:3,4]benzo[1,2-d]thiazol-7-yl)methyl (2-methylpyridin-4-yl)carbamate] | 33 |
| COc1cnc2c(-c3nc4cc(F)c5c(c4s3)C[C@H](COC(=O)Nc3cccc(C(N)=O)c3)O5)cc(C)cc2n1 [Example 180, (R)-(5-fluoro-2-(2-methoxy-7-methylquinoxalin-5-yl)-7,8-dihydrobenzofuro[5,4-d]thiazol-7-yl)methyl (3-carbamoylphenyl)carbamate] | 1.6 |
| COc1cnc2c(-c3nc4c(C)cc5c(c4s3)OC[C@H](COC(=O)Nc3cccnc3)O5)cc(C#N)cc2n1 [Example 93, (R)-(2-(7-cyano-2-methoxyquinoxalin-5-yl)-4-methyl-7,8-dihydro-[1,4]dioxino[2′,3′:3,4]benzo[1,2-d]thiazol-7-yl)methyl pyridin-3-ylcarbamate] | 20 |
| COc1cnc2c(-c3nc4cc(F)c5c(c4s3)C[C@H](COC(=O)Nc3cc(F)cc(C#N)c3)O5)cc(C)cc2n1 [Example 179, (R)-(5-fluoro-2-(2-methoxy-7-methylquinoxalin-5-yl)-7,8-dihydrobenzofuro[5,4-d]thiazo 1-7-yl)methyl (3-cyano-5-fluorophenyl)carbamate] | 2.4 |
| COc1cnc2c(-c3nc4cc(F)c5c(c4s3)[C@H](C)[C@@H](CO)O5)cc(Cl)cc2n1 [Example 253, ((7S,8S)-2-(7-chloro-2-methoxyquinoxalin-5-yl)-5-fluoro-8-methyl-7,8-dihydrobenzofuro [5,4-d]thiazol-7-yl)methanol] | 2.7 |

Other lines, results leading:

| IC50 [nM] | SMILES |
| --- | --- |
| 2.5 | COc1cnc2c(-c3nc4c(C)cc5c(c4s3)OCC(COC(=O)Nc3cnc(F)c(C)c3)O5)cc(C)cc2n1 (stereo not drawn) [Example 122, (2-(2-methoxy-7-methylquinoxalin-5-yl)-4-methyl-7,8-dihydro-[1,4]dioxino[2′,3′:3,4]benzo [1,2-d]thiazol-7-yl)methyl (6-fluoro-5-methylpyridin-3-yl)carbamate] |
| > 500 | COc1cnc2c(-c3nc4cc(F)c5c(c4s3)C[C@H](CNC(=O)C(F)(F)F)O5)cc(C)cc2n1 [Example 222, (R)-2,2,2-trifluoro-N-((5-fluoro-2-(2-methoxy-7-methylquinoxalin-5-yl)-7,8-dihydrobenzofuro[5,4-d]thiazol-7-yl)methyl)acetamide] |
| 52 | COc1cnc2c(-c3nc4cc(F)c5c(c4s3)C[C@](C)(CO)O5)cc(C)cc2n1 [Example 181, (R)-(5-fluoro-2-(2-methoxy-7-methylquinoxalin-5-yl)-7-methyl-7,8-dihydrobenzofuro[5,4-d]thiazol-7-yl)methanol] |
| 3.3 | COc1cnc2c(-c3nc4ccc5c(c4s3)C[C@@H](CNC(=O)OCc3cccnc3)O5)cc(C)cc2n1 [Example 232, (S)-pyridin-3-ylmethyl ((2-(2-methoxy-7-methylquinoxalin-5-yl)-7,8-dihydrobenzofuro[5,4-d]thiazol-7-yl)methy 1)carbamate] |
| 7.1 | COc1cnc2c(-c3nc4ccc5c(c4s3)OC[C@H](COC(=O)Nc3ccc(F)nc3)O5)cc(C)cc2n1 [Example 112, (R)-(2-(2-methoxy-7-methylquinoxalin-5-yl)-7,8-dihydro-[1,4]dioxino[2′,3′:3,4]benzo[1,2-d]thiazol-7-yl)methyl (6-fluoropyridin-3-yl)carbamate] |
| 3.3 | COc1cnc2c(-c3nc4c(Cl)cc5c(c4s3)OC[C@H](COC(=O)Nc3ccnnc3)O5)cc(C)cc2n1 [Example 34, (R)-(4-chloro-2-(2-methoxy-7-methylquinoxalin-5-yl)-7,8-dihydro-[1,4]dioxino[2′,3′:3,4]benzo[1,2-d]thiazol-7-yl)methyl pyridazin-4-ylcarbamate] |
| 2 | COc1cnc2c(-c3nc4c(C)cc5c(c4s3)OCC(COC(=O)Nc3ccc(C(F)(F)F)nc3)O5)cc(C)cc2n1 (stereo not drawn) [Example 131, (2-(2-methoxy-7-methylquinoxalin-5-yl)-4-methyl-7,8-dihydro-[1,4]dioxino[2′,3′:3,4]benzo[1,2-d]thiazol-7-yl)methyl (6-(trifluoromethyl)pyridin-3-yl)carbamate] |
| 3.1 | COc1cnc2c(-c3nc4cc(F)c5c(c4s3)CC(C)(CO)O5)cc(C)cc2n1 (stereo not drawn) [Example 167, (5-fluoro-2-(2-methoxy-7-methylquinoxalin-5-yl)-7-methyl-7,8-dihydrobenzofuro[5,4-d]thiazol-7-yl)methanol] |
| 15 | COc1cnc2c(-c3nc4c(F)cc5c(c4s3)OC[C@H](COC(=O)Nc3ccnc(C)c3)O5)cc(CO)cc2n1 [Example 85, (R)-(4-fluoro-2-(7-(hydroxymethyl)-2-methoxyquinoxalin-5-yl)-7,8-dihydro-[1,4]dioxino [2′,3′:3,4]benzo[1,2-d]thiazol-7-yl)methyl (2-methylpyridin-4-yl)carbamate] |
| 2 | COc1cnc2c(-c3nc4c(C)cc5c(c4s3)OC[C@H](COC(=O)Nc3ccnc(C)c3)O5)cc(CO)cc2n1 [Example 99, (R)-(2-(7-(hydroxymethyl)-2-methoxyquinoxalin-5-yl)-4-methyl-7,8-dihydro-[1,4]dioxino[2′,3′:3,4]benzo[1,2-d]thiazol-7-yl)methyl (2-methylpyridin-4-yl)carbamate] |
| 18 | COc1cnc2c(-c3nc4c(C)cc5c(c4s3)OCC(COC(=O)Nc3ccc(O)nc3)O5)cc(C)cc2n1 (stereo not drawn) [Example 123, (2-(2-methoxy-7-methylquinoxalin-5-yl)-4-methyl-7,8-dihydro-[1,4]dioxino[2′,3′:3,4]benzo [1,2-d]thiazol-7-yl)methyl (6-hydroxypyridin-3-yl)carbamate] |
| 1.8 | COc1cnc2c(-c3nc4c(C)cc5c(c4s3)OC[C@H](COC(=O)Nc3cccnc3)O5)cc(C)cc2n1 (single isomer, unassigned) [Example 5] |
| 1.3 | COc1cnc2c(-c3cc4c5c(ccc4o3)O[C@@H](COC(=O)Nc3ccc(C)nc3)CO5)cc(C)cc2n1 [Example 11, (R)-(8-(2-methoxy-7-methylquinoxalin-5-yl)-2,3-dihydro-[1,4]dioxino[2,3-e]benzofuran-3-yl)methyl (6-methylpyridin-3-yl)carbamate] |
| 150 | CCOc1ccc(NC(=O)OCC2COc3c(cc(C)c4nc(-c5cc(C)cc6nc(OC)cnc56)sc34)O2)cn1 (stereo not drawn) [Example 133, (2-(2-methoxy-7-methylquinoxalin-5-yl)-4-methyl-7,8-dihydro-[1,4]dioxino[2′,3′:3,4]benzo[1,2-d]thiazol-7-yl)methyl (6-ethoxypyridin-3-yl)carbamate] |
